The text below walks through data of patent publication US20150087673A1, “METHODS FOR USING AND BIOMARKERS FOR AMPK-ACTIVATING COMPOUNDS” (RIGEL PHARMACEUTICALS, INC., priority 2013, published 2015).

In one data set the test system is AMPK. The data set is described as follows: AMPK activation in liver and muscle lysates after a single oral administration. It is filed as in vivo, mouse. The conditions noted are these: normal C57BL/6J mice, single oral administration of 10 mg/kg.
For the next data set, the system named is glucose uptake. The data set is described as follows: Glucose uptake in vitro. It is filed as cell-based.
A further data set relates to gluconeogenesis. The data set is described as follows: Gluconeogenesis in vitro. It is filed as cell-based.
A short description of data set [1]: Compound plasma levels after oral dosing. It is filed as in vivo, mouse. How it is done:
Metabolite profiling of tissues from db/db mice orally dosed with either vehicle or 10 mg/kg compound 309 was used to characterize in detail the effects of the present AMPK activators on nutrient pathways in a commonly used mouse model of type 2 diabetes. […] Since AMPK activation results in both acute and chronic changes to metabolic pathways, samples from non-fasted mice treated for three days with compound 309 were analyzed. Samples were collected thirty minutes after compound dosing when compound 309 plasma levels as well as tissue AMPK activation were maximal.

As to `COc1ccc(C(=O)C2CCN(C(=O)c3ccc(C(=O)NC4CCN(Cc5ccc(C#N)cc5)CC4)cn3)CC2)cc1` [Compound 309, N-(1-(4-cyanobenzyl)piperidin-4-yl)-6-(4-(4-methoxybenzoyl)piperidine-1-carbonyl)nicotinamide], the “AMPK activation in liver and muscle lysates” value in the data set with AMPK is “robust AMPK activation”. The glucose uptake entry in the data set with glucose uptake was “robust enhancement”. For the same compound, in the data set with gluconeogenesis, the gluconeogenesis entry is “reduction”. Moreover, in data set [1], the “time after compound dosing when plasma levels were maximal” value was “thirty”.
